Experiment [1] addresses 3,6-anhydro-D-galactonate cycloisomerase DauB (ZGAL_3156) (Zobellia galactanivorans). As to the kind of experiment: crystal structure; hanging drop vapor diffusion; 0.2 M tri potassium citrate, 20% PEG 3350, 25 mg/mL ZGAL_3156; data at 100 K.
Experiment [2] has the same target. As to the kind of experiment: SEC; size-exclusion column analysis of ZGAL_3156 in solution (Supplementary Fig. 9). (In general: In gel filtration, larger molecules generally elute earlier.)
Another experiment has as its target T1, ZGAL_3146 (CgsB1, S1_7) (Zobellia galactanivorans, UniProt G0L7B4).
T1 construct: gene idsA3
T1 sequence (G0L7B4 19-544): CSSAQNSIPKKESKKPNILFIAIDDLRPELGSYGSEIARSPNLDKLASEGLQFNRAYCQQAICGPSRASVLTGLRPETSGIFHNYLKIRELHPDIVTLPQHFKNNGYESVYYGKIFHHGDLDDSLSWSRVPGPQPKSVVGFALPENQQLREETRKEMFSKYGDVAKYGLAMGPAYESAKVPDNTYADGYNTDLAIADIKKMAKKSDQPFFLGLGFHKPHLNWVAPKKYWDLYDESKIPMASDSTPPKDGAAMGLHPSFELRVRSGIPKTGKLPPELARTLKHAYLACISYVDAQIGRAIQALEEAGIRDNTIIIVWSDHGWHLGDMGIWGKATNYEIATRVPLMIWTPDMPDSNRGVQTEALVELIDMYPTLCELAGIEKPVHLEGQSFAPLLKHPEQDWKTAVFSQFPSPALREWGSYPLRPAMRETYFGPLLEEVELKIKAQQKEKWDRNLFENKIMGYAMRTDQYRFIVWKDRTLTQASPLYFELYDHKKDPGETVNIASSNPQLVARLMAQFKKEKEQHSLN
The experiment can be described thus: sulfatase activity on artificial substrate. It counts as biochemical.

Another experiment concerns the target T2, ZGAL_3145 (CgsA, S1_19) (Zobellia galactanivorans, UniProt G0L000).
T2 construct: gene zobellia_3145
T2 sequence (G0L000 44-511): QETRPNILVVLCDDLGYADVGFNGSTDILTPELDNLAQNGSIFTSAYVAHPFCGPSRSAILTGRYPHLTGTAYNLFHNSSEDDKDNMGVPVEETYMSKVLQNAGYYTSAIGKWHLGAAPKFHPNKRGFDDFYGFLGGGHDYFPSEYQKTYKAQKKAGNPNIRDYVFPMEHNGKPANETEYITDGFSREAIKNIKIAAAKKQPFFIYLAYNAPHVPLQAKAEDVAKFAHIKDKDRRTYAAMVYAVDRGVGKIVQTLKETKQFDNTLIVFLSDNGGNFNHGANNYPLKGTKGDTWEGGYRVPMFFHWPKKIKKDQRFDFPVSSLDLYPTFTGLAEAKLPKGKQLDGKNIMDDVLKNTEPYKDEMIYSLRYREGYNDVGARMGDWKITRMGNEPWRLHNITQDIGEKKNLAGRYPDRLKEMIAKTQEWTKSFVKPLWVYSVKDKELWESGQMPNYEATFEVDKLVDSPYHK
The experiment can be described thus: sulfatase activity on artificial substrate. It counts as biochemical.

The target in another experiment is T3, ZGAL_3151 (CgsC, S1_17) (Zobellia galactanivorans, UniProt G0L7B6).
T3 construct: gene zobellia_3151
T3 sequence (G0L7B6 40-596): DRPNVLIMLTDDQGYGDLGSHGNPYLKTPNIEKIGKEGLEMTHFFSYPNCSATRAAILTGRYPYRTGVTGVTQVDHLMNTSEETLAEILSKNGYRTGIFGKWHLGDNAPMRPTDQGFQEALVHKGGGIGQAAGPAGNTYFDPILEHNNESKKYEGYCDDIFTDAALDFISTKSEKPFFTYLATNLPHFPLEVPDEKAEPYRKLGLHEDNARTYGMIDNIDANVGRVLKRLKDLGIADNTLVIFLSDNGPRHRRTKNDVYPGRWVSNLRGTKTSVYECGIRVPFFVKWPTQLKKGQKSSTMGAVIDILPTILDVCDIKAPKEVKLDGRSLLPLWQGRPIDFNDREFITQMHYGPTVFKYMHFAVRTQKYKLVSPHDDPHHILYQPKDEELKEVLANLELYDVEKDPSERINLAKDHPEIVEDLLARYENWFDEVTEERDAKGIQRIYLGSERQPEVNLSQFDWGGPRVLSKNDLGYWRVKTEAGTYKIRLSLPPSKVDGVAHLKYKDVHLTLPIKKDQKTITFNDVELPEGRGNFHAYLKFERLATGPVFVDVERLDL
As to the kind of experiment: sulfatase activity on artificial substrate. Type of experiment: biochemical.

Experiment [3] has as its target T4, ZGAL_3152 (DagB, GH129-like) (Zobellia galactanivorans, UniProt G0L004).
T4 construct: gene zobellia_3152; recombinant, E. coli BL21(DE3), pFO4, IMAC purified; homodimer, residues Pro35-Asp693 described in structure
As to the kind of experiment: FACE and MALDI-TOF-MS. It counts as biochemical. The conditions noted are these: 0.5% hexasaccharide fraction, 150 mM NaCl, 3.75 mM CaCl2, 100 mM HEPES pH 7.5, room temperature overnight.

The target of experiment [4] is T5, ZGAL_3147 (DagA1, GH127-1) (Zobellia galactanivorans, UniProt G0L001).
T5 construct: gene zobellia_3147; recombinant, soluble lysate of E. coli BL21(DE3), pFO4
T5 sequence (G0L001 20-681): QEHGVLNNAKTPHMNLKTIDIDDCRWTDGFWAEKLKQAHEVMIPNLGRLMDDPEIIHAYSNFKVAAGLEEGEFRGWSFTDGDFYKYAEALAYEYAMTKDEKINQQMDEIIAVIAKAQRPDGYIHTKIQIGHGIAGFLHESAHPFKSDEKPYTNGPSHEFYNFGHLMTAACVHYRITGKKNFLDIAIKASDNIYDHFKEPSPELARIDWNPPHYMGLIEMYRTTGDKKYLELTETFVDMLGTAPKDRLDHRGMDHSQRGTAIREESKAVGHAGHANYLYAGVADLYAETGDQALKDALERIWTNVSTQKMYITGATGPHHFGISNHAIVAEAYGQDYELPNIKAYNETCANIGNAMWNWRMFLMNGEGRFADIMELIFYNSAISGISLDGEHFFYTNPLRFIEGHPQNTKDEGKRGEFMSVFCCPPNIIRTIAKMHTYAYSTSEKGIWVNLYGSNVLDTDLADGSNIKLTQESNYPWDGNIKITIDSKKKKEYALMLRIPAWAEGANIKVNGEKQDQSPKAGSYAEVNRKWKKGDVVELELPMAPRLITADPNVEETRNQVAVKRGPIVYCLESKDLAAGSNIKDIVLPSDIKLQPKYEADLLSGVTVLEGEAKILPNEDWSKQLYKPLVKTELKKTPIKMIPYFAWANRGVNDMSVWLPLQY
The experiment can be described thus: FACE and MALDI MS, E. coli soluble lysate. It counts as biochemical. The conditions noted are these: 0.5% hexasaccharide fraction, 150 mM NaCl, 3.75 mM CaCl2, 100 mM HEPES pH 7.5, room temperature overnight; vector-only lysate as control.

Experiment [5] deals with T6, ZGAL_3148 (DagA2, GH127-2) (Zobellia galactanivorans, UniProt G0L7B5).
T6 construct: gene zobellia_3148; recombinant, soluble lysate of E. coli BL21(DE3), pFO4
T6 sequence (G0L7B5 1-656): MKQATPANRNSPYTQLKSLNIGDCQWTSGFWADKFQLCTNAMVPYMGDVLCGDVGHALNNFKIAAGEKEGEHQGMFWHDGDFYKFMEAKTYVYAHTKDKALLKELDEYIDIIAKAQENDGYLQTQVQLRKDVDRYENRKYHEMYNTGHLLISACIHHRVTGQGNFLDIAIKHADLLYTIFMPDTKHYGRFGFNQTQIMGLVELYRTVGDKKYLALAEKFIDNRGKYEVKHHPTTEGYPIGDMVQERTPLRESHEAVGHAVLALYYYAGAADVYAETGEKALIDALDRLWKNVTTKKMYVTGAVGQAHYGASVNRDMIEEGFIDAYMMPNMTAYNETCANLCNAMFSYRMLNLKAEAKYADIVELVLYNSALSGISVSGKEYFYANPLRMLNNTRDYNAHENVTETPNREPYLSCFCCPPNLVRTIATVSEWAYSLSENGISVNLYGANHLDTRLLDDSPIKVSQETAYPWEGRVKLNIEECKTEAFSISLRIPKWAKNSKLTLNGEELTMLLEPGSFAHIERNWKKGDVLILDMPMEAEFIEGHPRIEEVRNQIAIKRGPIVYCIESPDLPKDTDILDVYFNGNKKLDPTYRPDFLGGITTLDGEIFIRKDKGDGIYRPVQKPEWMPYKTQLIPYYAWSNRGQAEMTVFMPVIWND
The experiment can be described thus: FACE and MALDI MS, E. coli soluble lysate. It counts as biochemical. Conditions: 0.5% hexasaccharide fraction, 150 mM NaCl, 3.75 mM CaCl2, 100 mM HEPES pH 7.5, room temperature overnight.

The target of experiment [6] is α-1,3-(3,6-anhydro)-D-galactosidase DagB (ZGAL_3152, GH129-like) (Zobellia galactanivorans). The experiment can be described thus: crystal structure; hanging drop vapor diffusion; 0.14 M Na/K-tartrate, 12% PEG 3350, 9 mg/mL ZGAL_3152; data at 100 K.

Counter-ions that a name gives are not always drawn.

T4 sequence (G0L004 entry or part of it): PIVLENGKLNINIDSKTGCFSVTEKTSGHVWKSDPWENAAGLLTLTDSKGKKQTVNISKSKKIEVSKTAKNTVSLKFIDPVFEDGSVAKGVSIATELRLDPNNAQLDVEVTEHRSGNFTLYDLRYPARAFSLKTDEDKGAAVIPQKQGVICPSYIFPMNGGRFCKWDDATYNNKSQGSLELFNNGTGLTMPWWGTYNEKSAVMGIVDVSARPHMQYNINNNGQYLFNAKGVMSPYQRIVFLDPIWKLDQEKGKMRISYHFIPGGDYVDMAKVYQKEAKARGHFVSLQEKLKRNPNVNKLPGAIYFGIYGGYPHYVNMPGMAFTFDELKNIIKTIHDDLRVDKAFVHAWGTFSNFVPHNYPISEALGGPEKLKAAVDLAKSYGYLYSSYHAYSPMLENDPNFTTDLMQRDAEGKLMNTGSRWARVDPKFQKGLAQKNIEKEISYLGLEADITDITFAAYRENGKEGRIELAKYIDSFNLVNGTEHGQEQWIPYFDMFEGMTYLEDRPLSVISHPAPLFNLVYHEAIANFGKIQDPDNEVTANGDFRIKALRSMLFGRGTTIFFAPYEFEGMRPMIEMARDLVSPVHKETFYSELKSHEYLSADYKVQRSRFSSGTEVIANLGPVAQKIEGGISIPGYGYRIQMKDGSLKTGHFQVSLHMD

One may read the stoichiometry N as a count of units in the complex or per binding partner. On to “3,6-anhydro-D-galactonate cycloisomerase DauB (ZGAL_3156) (enzyme)”, for which the stoichiometry N in [1] and in experiment [2] was 8 each time.

Turning to `Cc1cc(=O)oc2cc(OS(=O)(=O)O)ccc12` [4-methylumbelliferyl sulfate], the “sulfatase activity on artificial substrate” value at ZGAL_3146 (CgsB1, S1_7) was “shown to be active sulfatases using the artificial substrate 4-methylumbelliferyl sulfate”; on ZGAL_3145 (CgsA, S1_19) it was “shown to be active sulfatases using the artificial substrate 4-methylumbelliferyl sulfate”; on ZGAL_3151 (CgsC, S1_17), “shown to be active sulfatases using the artificial substrate 4-methylumbelliferyl sulfate”. As to `O=C[C@H](O)[C@H]1OC[C@@H](O)[C@@H]1O` [D-AnG], in [3], the “FACE and MALDI-TOF-MS” value was “indicated the release of the terminal neutral monosaccharide D-AnG and of a pentasaccharide”. As to `O=S(=O)(O)O[C@@H]1[C@H](O[C@H]2O[C@@H]3CO[C@H]([C@H]2O)[C@H]3O[C@@H]2O[C@H](CO)[C@H](O)[C@H](O[C@H]3O[C@@H]4CO[C@@H]([C@H]4O)[C@H]3O)[C@H]2O)[C@@H](O)[C@H](O[C@@H]2[C@@H]3OC[C@H]2O[C@H](O[C@H]2[C@@H](OS(=O)(=O)O)[C@@H](CO)OC(O)[C@@H]2O)[C@@H]3O)O[C@@H]1CO` (stereo partly drawn) [DP6 beta-kappa-kappa oligosaccharide], the “FACE and MALDI MS, E. coli soluble lysate” value was “All the GHs showed activity on the furcellaran hexasaccharide, as demonstrated using FACE” in experiment [4] and “All the GHs showed activity on the furcellaran hexasaccharide, as demonstrated using FACE” in experiment [5]. The molecule “α-1,3-(3,6-anhydro)-D-galactosidase DagB (ZGAL_3152, GH129-like) (enzyme)” gave a stoichiometry N in [6] of 2.

These data come from article PMC5698469, “Carrageenan catabolism is encoded by a complex regulon in marine heterotrophic bacteria” (Nature Communications, 2017).
